Measured values reported in US20140080128A1, “METHOD FOR DETERMINING WHETHER A SUBJECT IS AT RISK OF HAVING OR DEVELOPING A CHRONIC KIDNEY DISEASE” (Institut National de Ia Sante et de la Recherche Medicale …, priority 2011, published 2014).

Columns and labels:
Format in all cases: in vivo, Sprague-Dawley rats
[1] = system: Hypertension-Induced Renal Disease Rat Model (L-NAME); test: Renal hemodynamics (arterial pressure, renal blood flow) in L-NAME hypertension-induced renal disease rat model; settings: for MAP (mean arterial pressure): L-NAME orally 15 mg/kg/day
Method: (§1) Male Sprague-Dawley rats, weighing 250 g, were maintained on a normal-salt diet and had free access to chow and tap water. NO synthesis was inhibited by L-NAME (orally, 15 mg·kg-1·day-1). […] When proteinuria exceeded 1 g/mmol creatinine (after 5 or 6 weeks), a group of animals was killed to allow estimations of renal hemodynamics and morphological parameters just before the beginning of therapy (LN 6w group, n=10). The remaining animals were divided into two subgroups for an additional experimental period of 4 weeks: in the first subgroup, L-NAME was given alone (LN 10w group, n=12); in the second subgroup treatment was accompanied by the administration of an AT1 receptor antagonist (Losartan, orally 30 mg·kg-1·day-1, Merck Sharp and Dohme-Chibret). At the end of Losartan treatment, we separated the animals of the second group in two subgroups: animals with normal creatininemia below 50 μmol/l (LN reg n=14) and animals with a creatininemia above 70 μmol/l (LN no reg n=15). The doses of the drugs were based on pilot experiments and previously published studies. Control animals were sacrificed at 6 and 10 week. Since control animals gave similar results for all measured parameters, pooled data are presented (C group, n=8). Others animals received Losartan during 4 weeks as additional control group (LOS group, n=3). All protocols and treatments were performed with the approval of the French government ethics committee.
After anesthesia by pentobarbital sodium (50-60 mg/kg body wt ip, Nembutal, Abbott, Chicago, Ill.), animals were placed on a servo-controlled table kept at 37° C. and the trachea was cannulated to facilitate respiration. The left femoral artery was catheterized for measurement of arterial pressure, and a femoral venous catheter was used for infusion of volume replacement. An ultrasound transit-time flow probe (1RB, Transonic, Ithaca, N.Y.) was placed around the left renal artery. Bovine serum albumin (4.7 g/dl of saline solution) was infused initially at 50 μl/min to replace surgical losses, and then at 10 μl/min for maintenance. Arterial pressure was measured via a pressure transducer (Statham P23 DB); RBF was measured by a flowmeter (T 420, low-pass filter, 40 Hz, Transonic). RBF values were controlled for zero offset determined at the end of an experiment after cardiac arrest. Data were recorded, stored, and analyzed using a DataTranslation analog-to-digital converter and the IOX software (EMKA Technologies, Paris, France).

[2] = system: Hypertension-Induced Renal Disease Rat Model (L-NAME); test: Urinary protein excretion and plasma creatinine in L-NAME rat model
Method: as §1, with “committee. Urine samples were collected for a 4-h period. Urinary protein concentration was normalized to creatinine concentration, and values were expressed as grams protein per millimole creatinine. Blood samples were withdrawn on the last day of the study, and plasma creatinine […] was measured by automated Jaffe's method.” for “committee.”

[3] = system: periostin, vimentin expression in renal cortex; test: Real time quantitative PCR (and immunoblotting) of markers in renal cortex of L-NAME rat model; settings: for periostin mRNA up-regulation in kidney (RT-qPCR): rats, versus baseline
Method: Male Sprague-Dawley rats, weighing 250 g, were maintained on a normal-salt diet and had free access to chow and tap water. NO synthesis was inhibited by L-NAME (orally, 15 mg·kg-1·day-1). […] When proteinuria exceeded 1 g/mmol creatinine (after 5 or 6 weeks), a group of animals was killed to allow estimations of renal hemodynamics and morphological parameters just before the beginning of therapy (LN 6w group, n=10). The remaining animals were divided into two subgroups for an additional experimental period of 4 weeks: in the first subgroup, L-NAME was given alone (LN 10w group, n=12); in the second subgroup treatment was accompanied by the administration of an AT1 receptor antagonist (Losartan, orally 30 mg·kg-1·day-1, Merck Sharp and Dohme-Chibret). At the end of Losartan treatment, we separated the animals of the second group in two subgroups: animals with normal creatininemia below 50 μmol/l (LN reg n=14) and animals with a creatininemia above 70 μmol/l (LN no reg n=15). The doses of the drugs were based on pilot experiments and previously published studies. Control animals were sacrificed at 6 and 10 week. Since control animals gave similar results for all measured parameters, pooled data are presented (C group, n=8). Others animals received Losartan during 4 weeks as additional control group (LOS group, n=3). All protocols and treatments were performed with the approval of the French government ethics committee. We extracted RNA from the renal cortex and the abdominal aorta using TRIzol solution (Life Technologies BRL, Gaithersburg, Md.). RNA quality was checked by measuring the ratio of optical densities at 260 and 280 nm and residual genomic DNA was removed by DNase I treatment for 30 min at 37° C. (Fermentas). We used reverse transcription with Revert Aid H minus First Strand DNA Synthesis kit (Fermentas) to convert 1 μg RNA into cDNA, which was then amplified by PCR using a LightCycler 480 (Roche Diagnostic) using SYBR Green (Fast Start DNA Master SYBRGreen I; Roche Applied Science, Roche Diagnostic), specific primers for POST, Col3A1, ESel, Vimentin, VCAM-1 and hypoxanthine-guanine phosphoribosyltransferase (HPRT) as housekeeping gene under the following conditions: 95° C. for 5 min, and 45 cycles at 95° C. for 15 s and 60° C. for 15 s, then 72° C. for 15 s. Specific primers were designed by Universal Probe Library system (UPL, Roche Applied Science). To normalize the Q-PCR results we used Roche LightCycler 2.0 software (Roche Diagnostic). We expressed results as 2-[…], where Cp is the cycle threshold number. We analyzed dissociation curves after each run for each amplicon to access the specificity of quantification when using SYBR Green. 25 μg of protein extracts obtained by RIPA buffer lysis of renal cortex were fractionated by SDS-PAGE NuPAGE 4/12% gels (Invitrogen) under reducing conditions using an XCell SureLockTM Mini-Cell (NuPAGE, Invitrogen, San Diego, Calif., USA) as described by the manufacturer and transferred onto a nitrocellulose membrane (Immobilon-P, Millipore, Billerica, Mass., USA) prior to detection of the POST (Biovendor) or β-actin (Imgenex, Clinisciences, France) protein with a specific rabbit polyclonal primary Ab (dilution 1/1000 and 1/5000 respectively) and a peroxidase-labelled IgG anti-rabbit secondary Ab (dilution 1/4000). The membrane was detected by enhanced chemiluminescence (ECL)-plus kit (Amersham Biosciences, Piscataway, N.J., USA) on autoradiography films (Fuji).

[4] = system: CD3+ lymphocytes in renal cortex; test: Immunohistochemistry for CD3 in kidney of L-NAME rat model; settings: rats, after 6 and 10 weeks LNAME treatment
Method: as §1, with “[…] Quantification of CD3-positive cells was” for “Others animals received Losartan during 4 weeks as additional control group (LOS group, n=3). All protocols and treatments were”, “using Olympus analysis software.” for “with the approval of the French government ethics committee.”

[5] = all losartan-treated groups compared to L-NAME 6w and 10w groups

SMILES	MAP (mean arterial pressure) ([1]; rats, 6 weeks treatment)	MAP (mean arterial pressure) ([1]; rats, 10 weeks treatment)	renal blood flow ([1]; rats, from 6 weeks LNAME treatment onwards)	proteinuria ([2]; rats, L-NAME, week 6)	creatininemia ([2]; rats, L-NAME, week 10)	periostin mRNA up-regulation in kidney (RT-qPCR) ([3]; after 6 weeks LNAME)	periostin mRNA up-regulation in kidney (RT-qPCR) ([3]; after 10 weeks LNAME)	CD3+ lymphocyte count [4]	renal hemodynamic alterations [1, 5]	creatininemia ([2]; after 4 weeks Losartan (30 mg/kg/day orally)+LNAME, "No Regression" (NOREG) group)	creatininemia ([2]; after 4 weeks Losartan (30 mg/kg/day orally)+LNAME, "Regression" (REG) group)	proteinuria [2, 5]	periostin expression in renal cortex ([3]; L-NAME+losartan 4 weeks, NOREG group)	periostin mRNA and protein expression in renal cortex ([3]; L-NAME+losartan 4 weeks, REG group)	vimentin mRNA expression in renal cortex ([3]; after initiation of losartan in L-NAME rats, irrespective of the REG/NOREG group)
COC(=O)[C@@H](N)CCCNC(=N)N[N+](=O)[O-] [LNAME, L-NAME]	211±7 mmHg	212±5 mmHg	striking reduction	1.3±0.2 g/mmol creatininuria	100 ± 14 µmol/L	13 fold	18 fold	strongly increased	–	–	–	–	–	–	–
CCCCc1nc(Cl)c(CO)n1Cc1ccc(-c2ccccc2-c2nn[nH]n2)cc1 [Losartan]	–	–	–	–	–	–	–	–	ameliorated	76 ± 3 µmol/L	50 ± 2 µmol/L	ameliorated	persistent increase	significantly blunted	sharp decrease
